# Source: patent US9409884B2 (Rigel Pharmaceuticals, Inc., priority 2012, dated 2016)
# Target: AMPK
# Experiment: AMPK activation, enzyme-linked immunosorbent assay
# Format: biochemical
# Conditions: Table 8, compounds of Table 1
# Description: Compounds of Table 1 were assayed for their ability to activate AMPK using an enzyme-linked immunosorbent assay.
# Compounds of Table 2 were assayed for their ability to activate AMPK using an enzyme-linked immunosorbent assay.
# Compounds of Table 3 were assayed for their ability to activate AMPK using an enzyme-linked immunosorbent assay.
# Compounds of Table 4 were assayed for their ability to activate AMPK using an enzyme-linked immunosorbent assay.
# Compounds of Table 5 were assayed for their ability to activate AMPK using an enzyme-linked immunosorbent assay.
# Compounds of Table 6 were assayed for their ability to activate AMPK using an enzyme-linked immunosorbent assay.
# Compounds of Table 7 were assayed for their ability to activate AMPK using an enzyme-linked immunosorbent assay.
row,EC50,SMILES
1,100 to 500 nM,"O=C(NC1CCN(Cc2ccc(F)cc2)CC1)c1cc(OC2CCN(c3ccc(C(F)(F)F)cc3)CC2)ccn1 [Compound 1-29, N-(1-(4-fluorobenzyl)piperidin-4-yl)-4-(1-(4-(trifluoromethyl)phenyl)piperidin-4-yloxy)picolinamide]"
2,< 100 nM,"O=C(N[C@H]1CCN(Cc2ccncc2)C1)c1ccc(OC2CCN(c3ccc(C(F)(F)F)cc3)CC2)cn1 [Compound 1-30, (S)-N-(1-(pyridin-4-ylmethyl)pyrrolidin-3-yl)-5-(1-(4-(trifluoromethyl)phenyl)piperidin-4-yloxy)picolinamide]"
3,< 100 nM,"N#Cc1ccc(CN2CC[C@H](NC(=O)c3ccc(OC4CCN(c5ccc(C(F)(F)F)cc5)CC4)cn3)C2)cc1 [Compound 1-31, (S)-N-(1-(4-cyanobenzyl)pyrrolidin-3-yl)-5-(1-(4-(trifluoromethyl)phenyl)piperidin-4-yloxy) picolinamide]"
4,100 to 500 nM,"O=C(N[C@H]1CCN(Cc2ccc(F)cc2)C1)c1ccc(OC2CCN(c3ccc(C(F)(F)F)cc3)CC2)cn1 [Compound 1-32, (S)-N-(1-(4-fluorobenzyl)pyrrolidin-3-yl)-5-(1-(4-(trifluoromethyl)phenyl)piperidin-4-yloxy) picolinamide]"
5,500 to 1000 nM,"N#Cc1ccc(CN2CC[C@@H](NC(=O)c3ccc(OC4CCN(c5ccc(C(F)(F)F)cc5)CC4)cn3)C2)cc1 [Compound 1-33, (R)-N-(1-(4-cyanobenzyl)pyrrolidin-3-yl)-5-(1-(4-(trifluoromethyl)phenyl)piperidin-4-yloxy) picolinamide]"
6,500 to 1000 nM,"O=C(N[C@@H]1CCN(Cc2ccc(F)cc2)C1)c1ccc(OC2CCN(c3ccc(C(F)(F)F)cc3)CC2)cn1 [Compound 1-34, (R)-N-(1-(4-fluorobenzyl)pyrrolidin-3-yl)-5-(1-(4-(trifluoromethyl)phenyl)piperidin-4-yloxy) picolinamide]"
7,100 to 500 nM,"N#Cc1ccc(CN2CCC(NC(=O)c3ccc(OC4CCN(c5ccc(C(F)(F)F)cc5)CC4)nc3)CC2)cc1 [Compound 1-35, N-(1-(4-cyanobenzyl)piperidin-4-yl)-6-(1-(4-(trifluoromethyl)phenyl)piperidin-4-yloxy) nicotinamide]"
8,500 to 1000 nM,"O=C(NC1CCN(CCc2ccccc2)CC1)c1ccc(OC2CCN(c3ccc(C(F)(F)F)cc3)CC2)cn1 [Compound 1-36, N-(1-phenethylpiperidin-4-yl)-5-(1-(4-(trifluoromethyl)phenyl)piperidin-4-yloxy) picolinamide]"
9,500 to 1000 nM,"O=C(NC1CCN(Cc2ccc3ccccc3c2)CC1)c1ccc(OC2CCN(c3ccc(C(F)(F)F)cc3)CC2)cn1 [Compound 1-37, N-(1-(naphthalen-2-ylmethyl)piperidin-4-yl)-5-(1-(4-(trifluoromethyl)phenyl)piperidin-4-yloxy)picolinamide]"
10,1000 to 5000 nM,"O=C(NC1CCN(Cc2ccccc2)CC1)c1ccc(OC2CCN(c3ccc(C(F)(F)F)cc3)CC2)cn1 [Compound 1-38, N-(1-benzylpiperidin-4-yl)-5-(1-(4-(trifluoromethyl)phenyl)piperidin-4-yloxy)picolinamide]"
11,100 to 500 nM,"CN(C)c1ccc(CN2CCC(NC(=O)c3ccc(OC4CCN(c5ccc(C(F)(F)F)cc5)CC4)cn3)CC2)cc1 [Compound 1-39, N-(1-(4-(dimethylamino)benzyl)piperidin-4-yl)-5-(1-(4-(trifluoromethyl)phenyl)piperidin-4-yloxy)picolinamide]"
12,< 100 nM,"O=C(NC1CCN(Cc2ccc(N3CCOCC3)cc2)CC1)c1ccc(OC2CCN(c3ccc(C(F)(F)F)cc3)CC2)cn1 [Compound 1-40, N-(1-(4-morpholinobenzyl)piperidin-4-yl)-5-(1-(4-(trifluoromethyl)phenyl)piperidin-4-yloxy)picolinamide]"
13,100 to 500 nM,"N#Cc1ccc(CN2CC(NC(=O)c3ccc(OC4CCN(c5ccc(C(F)(F)F)cc5)CC4)cn3)C2)cc1 [Compound 1-41, N-(1-(4-cyanobenzyl)azetidin-3-yl)-5-(1-(4-(trifluoromethyl)phenyl)piperidin-4-yloxy)picolinamide]"
14,1000 to 5000 nM,"O=C(NC1CN(Cc2ccncc2)C1)c1ccc(OC2CCN(c3ccc(C(F)(F)F)cc3)CC2)cn1 [Compound 1-42, N-(1-(pyridin-4-ylmethyl)azetidin-3-yl)-5-(1-(4-(trifluoromethyl)phenyl)piperidin-4-yloxy)picolinamide]"
15,1000 to 5000 nM,"O=C(NC1CCN(Cc2ccncc2)CC1)c1cccc(OC2CCN(c3ccc(C(F)(F)F)cc3)CC2)n1 [Compound 1-43, N-(1-(pyridin-4-ylmethyl)piperidin-4-yl)-6-(1-(4-(trifluoromethyl)phenyl)piperidin-4-yloxy)picolinamide]"
16,100 to 500 nM,"O=C(NC1CCN(Cc2cncnc2)CC1)c1ccc(OC2CCN(c3ccc(C(F)(F)F)cc3)CC2)cn1 [Compound 1-44, N-(1-(pyrimidin-5-ylmethyl)piperidin-4-yl)-5-(1-(4-(trifluoromethyl)phenyl)piperidin-4-yloxy)picolinamide]"

row,EC50,SMILES
1,> 10000 nM,"COC(=O)c1ccc(CN2CCC(NC(=O)c3ccc(OC4CCN(c5ccc(C(F)(F)F)cc5)CC4)nc3)CC2)cc1 [Compound 1-45, methyl 4-((4-(6-(1-(4-(trifluoromethyl)phenyl)piperidin-4-yloxy)nicotinamido)piperidin-1-yl)methyl)benzoate]"
2,1000 to 5000 nM,"O=C(O)c1ccc(CN2CCC(NC(=O)c3ccc(OC4CCN(c5ccc(C(F)(F)F)cc5)CC4)nc3)CC2)cc1 [Compound 1-46, 4-((4-(6-(1-(4-(trifluoromethyl)phenyl)piperidin-4-yloxy)nicotinamido)piperidin-1-yl)methyl) benzoic acid]"
3,1000 to 5000 nM,"O=C(NC1CCN(Cc2cn(C(c3ccccc3)(c3ccccc3)c3ccccc3)cn2)CC1)c1ccc(OC2CCN(c3ccc(C(F)(F)F)cc3)CC2)cn1 [Compound 1-47, 5-(1-(4-(trifluoromethyl)phenyl)piperidin-4-yloxy)-N-(1-((1-trityl-1H-imidazol-4-yl)methyl)piperidin-4-yl)picolinamide]"
4,1000 to 5000 nM,"O=C(NC1CCN(Cc2c[nH]cn2)CC1)c1ccc(OC2CCN(c3ccc(C(F)(F)F)cc3)CC2)cn1 [Compound 1-48, N-(1-((1H-imidazol-4-yl)methyl)piperidin-4-yl)-5-(1-(4-(trifluoromethyl)phenyl)piperidin-4-yloxy)picolinamide]"
5,< 100 nM,"CC(C)(C)OC(=O)NCCCNC(=O)c1ccc(OC2CCN(c3ccc(C(F)(F)F)cc3)CC2)cn1 [Compound 1-49, tert-butyl 3-(5-(1-(4-(trifluoromethyl)phenyl)piperidin-4-yloxy)picolinamido) propylcarbamate]"
6,1000 to 5000 nM,"O=C(NCCCNCc1ccncc1)c1ccc(OC2CCN(c3ccc(C(F)(F)F)cc3)CC2)cn1 [Compound 1-50, N-(3-(pyridin-4-ylmethylamino)propyl)-5-(1-(4-(trifluoromethyl)phenyl)piperidin-4-yloxy)picolinamide]"
7,100 to 500 nM,"O=S(=O)(NC1CCN(Cc2ccncc2)CC1)c1ccc(OC2CCN(c3ccc(C(F)(F)F)cc3)CC2)nc1 [Compound 1-51, N-(1-(pyridin-4-ylmethyl)piperidin-4-yl)-6-(1-(4-(trifluoromethyl)phenyl)piperidin-4-yloxy)pyridine-3-sulfonamide]"
8,100 to 500 nM,"N#Cc1ccc(N2CCC(Oc3ccc(S(=O)(=O)NC4CCN(Cc5ccncc5)CC4)cn3)CC2)cc1 [Compound 1-52, N-(1-(pyridin-4-ylmethyl)piperidin-4-yl)-6-(1-(4-cyanophenyl)piperidin-4-yloxy)pyridine-3-sulfonamide]"
9,100 to 500 nM,"N#Cc1ccc(CN2CCC(Oc3ccc(S(=O)(=O)NC4CCN(Cc5ccncc5)CC4)cn3)CC2)cc1 [Compound 1-53, 6-(1-(4-cyanobenzyl)piperidin-4-yloxy)-N-(1-(pyridin-4-ylmethyl)piperidin-4-yl)pyridine-3-sulfonamide]"
10,1000 to 5000 nM,"CC(C)(C)OC(=O)N1CCC(NS(=O)(=O)c2ccc(OC3CCN(c4ccc(C(F)(F)F)cc4)CC3)nc2)CC1 [Compound 1-54, tert-butyl 4-(6-(1-(4-(trifluoromethyl)phenyl)piperidin-4-yloxy)pyridine-3-sulfonamido) piperidine-1-carboxylate]"
11,1000 to 5000 nM,"O=S(=O)(NC1CCNCC1)c1ccc(OC2CCN(c3ccc(C(F)(F)F)cc3)CC2)nc1 [Compound 1-55, N-(piperidin-4-yl)-6-(1-(4-(trifluoromethyl)phenyl)piperidin-4-yloxy)pyridine-3-sulfonamide]"
12,5000 to 10000 nM,"N#Cc1ccc(CN2CCC(NS(=O)(=O)c3ccc(OC4CCN(c5ccc(C(F)(F)F)cc5)CC4)nc3)CC2)cc1 [Compound 1-56, N-(1-(4-cyanobenzyl)piperidin-4-yl)-6-(1-(4-(trifluoromethyl)phenyl)piperidin-4-yloxy)pyridine-3-sulfonamide]"
13,500 to 1000 nM,"N#Cc1cccc(CN2CCC(NS(=O)(=O)c3ccc(OC4CCN(c5ccc(C(F)(F)F)cc5)CC4)nc3)CC2)c1 [Compound 1-57, N-(1-(3-cyanobenzyl)piperidin-4-yl)-6-(1-(4-(trifluoromethyl)phenyl)piperidin-4-yloxy)pyridine-3-sulfonamide]"
14,< 100 nM,"O=S(=O)(NC1CCN(Cc2ccc(C(F)(F)F)cc2)CC1)c1ccc(OC2CCN(c3ccc(C(F)(F)F)cc3)CC2)nc1 [Compound 1-58, N-(1-(4-(trifluoromethyl)benzyl)piperidin-4-yl)-6-(1-(4-(trifluoromethyl)phenyl)piperidin-4-yloxy)pyridine-3-sulfonamide]"
15,100 to 500 nM,"O=S(=O)(NC1CCN(Cc2cccc(C(F)(F)F)c2)CC1)c1ccc(OC2CCN(c3ccc(C(F)(F)F)cc3)CC2)nc1 [Compound 1-59, N-(1-(3-(trifluoromethyl)benzyl)piperidin-4-yl)-6-(1-(4-(trifluoromethyl)phenyl)piperidin-4-yloxy)pyridine-3-sulfonamide]"
